# Test system: A549 cells
# Test: Combination dose-matrix cell viability assay (CellTiter-Blue / alamar blue), A549
# Format: cell-based
# Settings: in the presence of increasing concentrations of cladribine
# Excerpt: The inhibition ranges from 0% at the untreated level to 100% when T=0.
# This effectively calculates a volume between the measured and Loewe additive response surfaces, weighted towards high inhibition and corrected for varying dilution factors.
compound,measurement,value
"CCN1CCN(Cc2ccc(-c3cc4c(N[C@H](C)c5ccccc5)ncnc4[nH]3)cc2)CC1 [{6-[4-(4-ethyl-piperazin-1-ylmethyl)-phenyl]-7H-pyrrolo[2,3-d]pyrimidin-4-yl]-((R)-1-phenyl-ethyl)-amine]",change in potency of the Erb-B/VEGF inhibitor,significant increase in the potency

# Reference: patent publication US20090099103A1, “COMBINATIONS OF THERAPEUTIC AGENTS FOR TREATING CANCER” (NOVARTIS AG., priority 2006, published 2009)
